Columns and labels:
CYP11B1 [1] = molecular target: T1, CYP11B1 (Homo sapiens, UniProt P15538); assay: Inhibition of recombinant CYP11B1 expressed in expressed in V79MZh11B1 cells at 2 uM; type: cell-based; conditions: hamster, V79MZh11B1 cells expressing recombinant CYP11B1
T1 sequence (P15538 whole entry): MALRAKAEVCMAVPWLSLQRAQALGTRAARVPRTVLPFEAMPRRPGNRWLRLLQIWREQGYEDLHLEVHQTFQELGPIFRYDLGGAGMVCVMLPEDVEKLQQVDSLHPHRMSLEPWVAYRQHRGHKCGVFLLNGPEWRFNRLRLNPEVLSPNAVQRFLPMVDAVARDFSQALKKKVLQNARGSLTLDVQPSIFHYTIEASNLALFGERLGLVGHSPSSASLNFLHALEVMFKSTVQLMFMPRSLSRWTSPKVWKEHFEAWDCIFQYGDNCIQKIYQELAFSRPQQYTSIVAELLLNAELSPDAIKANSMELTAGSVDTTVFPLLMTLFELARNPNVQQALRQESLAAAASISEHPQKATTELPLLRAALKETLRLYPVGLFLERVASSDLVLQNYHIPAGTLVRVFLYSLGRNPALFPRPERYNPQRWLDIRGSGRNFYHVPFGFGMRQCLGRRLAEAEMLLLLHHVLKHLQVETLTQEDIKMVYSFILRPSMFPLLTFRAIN

[2] = molecular target: T2, Steroid 17-alpha-hydroxylase/17,20 lyase (Homo sapiens, UniProt P05093); assay: Inhibition of human CYP17 expressed in Escherichia coli coexpressing NADPH-P450 reductase
T2 sequence (P05093 whole entry): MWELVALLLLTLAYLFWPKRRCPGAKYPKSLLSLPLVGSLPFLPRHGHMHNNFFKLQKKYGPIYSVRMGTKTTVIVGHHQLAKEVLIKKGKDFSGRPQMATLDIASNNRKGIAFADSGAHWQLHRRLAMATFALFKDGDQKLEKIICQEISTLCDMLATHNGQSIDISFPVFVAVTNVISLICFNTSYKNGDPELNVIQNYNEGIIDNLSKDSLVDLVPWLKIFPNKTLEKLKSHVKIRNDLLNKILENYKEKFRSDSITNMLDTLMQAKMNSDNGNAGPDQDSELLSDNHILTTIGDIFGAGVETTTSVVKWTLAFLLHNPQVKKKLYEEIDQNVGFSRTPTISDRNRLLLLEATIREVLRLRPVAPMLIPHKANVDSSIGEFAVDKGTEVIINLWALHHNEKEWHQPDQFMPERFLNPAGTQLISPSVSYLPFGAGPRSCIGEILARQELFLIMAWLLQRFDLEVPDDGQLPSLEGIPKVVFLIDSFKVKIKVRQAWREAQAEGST

[3] = molecular target: T2, Steroid 17-alpha-hydroxylase/17,20 lyase; assay: Inhibition of human CYP17 expressed in Escherichia coli coexpressing NADPH-P450 reductase at 2 uM
CYP3A4 [4] = molecular target: T3, CYP3A4 (Homo sapiens, UniProt P08684); assay: (§1) Inhibition of recombinant CYP3A4 expressed in baculovirus-infected insect microsome at 1 uM; type: ADME; conditions: human
CYP11B1 [5] = molecular target: T1, CYP11B1; assay: Inhibition of recombinant CYP11B1 expressed in V79MZh11B1 cells at 0.2 uM; type: cell-based; conditions: hamster, V79MZh11B1 cells expressing recombinant CYP11B1
[6] = molecular target: T2, Steroid 17-alpha-hydroxylase/17,20 lyase; assay: Inhibition of human CYP17 expressed in Escherichia coli coexpressing NADPH-P450 reductase at 0.2 uM
CYP3A4 [7] = molecular target: T3, CYP3A4; assay: Inhibition of recombinant CYP3A4 expressed in baculovirus-infected insect microsome at 10 uM; type: ADME
Cytochrome P450 3A4 = Cytochrome P450 3A4 (Homo sapiens, UniProt P08684); assay: as §1; type: ADME
[8] = molecular target: T2, Steroid 17-alpha-hydroxylase/17,20 lyase; assay: Ratio of ketoconazole to drug against IC50 for human CYP17 expressed in Escherichia coli coexpressing NADPH-P450 reductase
[9] = molecular target: T4, Cytochrome P450 11B1, mitochondrial (Homo sapiens, UniProt P15538); assay: Inhibition of recombinant CYP11B1 expressed in expressed in V79MZh11B1 cells; type: cell-based
T4 sequence (P15538 whole entry): T1 sequence (P15538 whole entry)

T3 sequence (P08684 whole entry): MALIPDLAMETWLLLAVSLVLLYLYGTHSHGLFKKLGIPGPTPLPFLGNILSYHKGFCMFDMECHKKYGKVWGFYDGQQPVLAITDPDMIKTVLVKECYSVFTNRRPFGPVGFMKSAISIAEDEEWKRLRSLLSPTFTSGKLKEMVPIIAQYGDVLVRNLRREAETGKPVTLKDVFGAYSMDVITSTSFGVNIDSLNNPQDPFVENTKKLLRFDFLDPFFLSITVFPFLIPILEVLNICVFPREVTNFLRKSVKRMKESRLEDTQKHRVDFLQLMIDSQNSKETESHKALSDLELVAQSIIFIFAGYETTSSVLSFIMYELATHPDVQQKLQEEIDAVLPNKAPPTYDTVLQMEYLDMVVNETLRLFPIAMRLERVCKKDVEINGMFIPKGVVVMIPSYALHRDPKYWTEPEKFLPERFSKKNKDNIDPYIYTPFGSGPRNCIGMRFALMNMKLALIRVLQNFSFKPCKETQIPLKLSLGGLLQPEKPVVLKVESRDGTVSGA
Sequence of Cytochrome P450 3A4 (P08684 whole entry): as above

| SMILES | inhibition at 2 µM (CYP11B1 [1]) [%] | IC50 [2] [nM] | inhibition at 2 µM [3] [%] | inhibition at 1 µM (CYP3A4 [4]) [%] | inhibition at 0.2 µM (CYP11B1 [5]) [%] | inhibition at 0.2 µM [6] [%] | inhibition at 10 µM (CYP3A4 [7]) [%] | IC50 (Cytochrome P450 3A4) [nM] | IC50 [9] [nM] | Ratio IC50 [8] |
| --- | --- | --- | --- | --- | --- | --- | --- | --- | --- | --- |
| CCC(c1ccc(-c2cccc(OC)c2)cc1)n1ccnc1 (racemic) | 96 | 188 | 83 | 80 | 84 | 31 | 92 |  |  |  |
| CCC(c1ccc(-c2ccc(OC)c(OC)c2)cc1)n1ccnc1 (racemic) |  |  | 58 | 70 |  | 9 | 93 |  |  |  |
| CCC(c1ccc(-c2ccc(OC)cc2)cc1)n1ccnc1 (racemic) |  |  | 36 | 73 |  | 2 | 80 |  |  |  |
| CCC(c1ccc(-c2ccc(O)cc2)cc1F)n1ccnc1 (racemic) | 97 | 90 | 94 | 86 | 89 | 64 | 91 |  |  |  |
| CCC(c1ccc(-c2cc(C)c(O)c(C)c2)cc1)n1ccnc1 (racemic) | 85 | 379 | 78 | 94 | 45 | 28 | 100 |  |  | 50 |
| COc1cccc(-c2ccc(C(C)n3ccnc3)cc2)c1 (racemic) |  |  | 59 |  |  | 8 |  |  |  |  |
| COc1ccc(-c2ccc(C(C)n3ccnc3)cc2)cc1 (racemic) |  |  | 40 |  |  | 9 |  |  |  |  |
| CCC(c1ccc(-c2ccc(O)c(O)c2)cc1F)n1ccnc1 (racemic) | 90 | 52 | 95 | 93 | 51 | 69 | 100 |  |  |  |
| CCOc1ccc(-c2ccc(C(CC)n3ccnc3)cc2)cc1 (racemic) |  |  | 25 |  |  | 3 |  |  |  |  |
| C[C@]12CC[C@H](O)CC1=CC[C@@H]1[C@@H]2CC[C@]2(C)C(c3cccnc3)=CC[C@@H]12 [ABIRATERONE] |  |  |  |  |  |  |  |  | 1610 |  |
| CC(=O)N1CCN(c2ccc(OCC3COC(Cn4ccnc4)(c4ccc(Cl)cc4Cl)O3)cc2)CC1 (stereo not given) [KETOCONAZOLE] | 93 |  |  |  | 61 |  |  |  |  |  |

Now from value to compound, other results behind:

| inhibition at 2 µM (CYP11B1 [1]) [%] | IC50 [2] [nM] | inhibition at 2 µM [3] [%] | inhibition at 1 µM (CYP3A4 [4]) [%] | inhibition at 0.2 µM (CYP11B1 [5]) [%] | inhibition at 0.2 µM [6] [%] | inhibition at 10 µM (CYP3A4 [7]) [%] | IC50 (Cytochrome P450 3A4) [nM] | IC50 [9] [nM] | SMILES | Ratio IC50 [8] |
| --- | --- | --- | --- | --- | --- | --- | --- | --- | --- | --- |
| 95 | 231 | 80 | 87 | 89 | 27 | 91 |  |  | CCC(c1ccc(-c2ccc(O)cc2)cc1)n1ccnc1 (racemic) |  |
| 96 | 217 | 89 |  | 89 | 44 | 99 | 91 |  | CCC(c1ccc(-c2ccc(O)c(Cl)c2)cc1)n1ccnc1 (racemic) | 50 |
| 92 | 152 | 91 | 91 | 38 | 56 | 99 |  |  | CCC(c1ccc(-c2ccc(O)c(O)c2)cc1)n1ccnc1 (racemic) |  |
| 95 | 164 | 89 | 84 | 90 | 55 | 88 |  |  | CCC(c1ccc(-c2cccc(O)c2)cc1)n1ccnc1 (racemic) |  |
| 96 | 261 | 89 | 93 | 91 | 45 | 98 |  |  | CCC(c1ccc(-c2ccc(O)c(C)c2)cc1)n1ccnc1 (racemic) | 50 |
| 97 | 195 | 90 | 90 | 93 | 48 | 99 |  |  | CCC(c1ccc(-c2cc(O)cc(O)c2)cc1)n1ccnc1 (racemic) |  |

Source: ChEMBL document CHEMBL1152894, “Novel CYP17 inhibitors: synthesis, biological evaluation, structure-activity relationships and modelling of methoxy- and hydroxy-substituted methyleneimidazolyl biphenyls” (Eur J Med Chem, 2009)
